Laboratory results taken from patent US20230116399A1, “Tumor Homing Statin Derivatives” (Da Zen Theranostics, Inc., priority 2019, published 2023).
Where two headings read alike, the source gives them in different places.

Test system: 22RV1 prostate cancer cells
Experiment: Cell viability by trypan blue counting, 22RV1
Format: cell-based, human
Details: read-out: IC50 for reduction of cell viability/growth inhibition
Procedure: Cell culture: In the following examples, unless otherwise specified, all cell lines are purchased from American Type Culture Collection and cultured in American Type Culture Collection (ATCC)-recommended media, with fetal bovine serum (FBS) to a final concentration of 10% and 1×penicillin/streptomycin at 37° C. with 5% CO2 in a cell culture incubator, unless otherwise specified. Unless otherwise specified, culture is 2D. Where culture is 3D, low attachment plates are used, with the same media. C4-2B (parental cell line and drug-resistant cells derived therefrom) are cultured in RPMI-1640 with 10% FBS. MDVR cells (an Enzalutamide-resistant variety of C4-2B prostate cancer cells formed as described in Example 4 below) are cultured as indicated for the parental C4-2B cells. 22RV1 Prostate Cancer (PC) cells (ATCC® CRL-2505™, a human prostate carcinoma cell line of epithelial morphology) are cultured in RPMI-1640 with 10% FBS. […]
Example 1B: Prostate Cancer (PC) cells (22RV1, ATCC® CRL-2505™, a human prostate carcinoma cell line) are cultured according to the standard protocol, and exposed for 24-48 hours, to 0-50 μM of the respective compound (THSD, unconjugated dye). Cell viability is determined by counting viable cells and dead cells after treatment of the cells with trypan blue dye to distinguish viable from dead cells. […]

IC50 (22RV1, exposed 24-48 hours, listed as unconjugated statin): > 50 µM
IC50 (Homo sapiens, 22Rv1, 22RV1, exposed 24-48 hours): > 60 µM
Compound: CCC(C)(C)C(=O)O[C@H]1C[C@@H](C)C=C2C=C[C@H](C)[C@H](CC[C@@H]3C[C@@H](O)CC(=O)O3)[C@H]21 [Simvastatin]
